# From BindingDB's records for PubMed 30125720 (Southern Medical University, 2018)
# Experiment: Inhibition of TGF-beta (unknown origin)
row,IC50,Compound
1,970 nM,O=c1[nH]cc(-c2cccc(CO)c2)cc1-c1nc2cc(N3CCNCC3)ccc2[nH]1
2,0.34 nM,CC(=O)Nc1cc(Nc2nc(-c3ccc(F)c(C)n3)nc3[nH]cnc23)ccn1
3,4.3 nM,"CCc1cnn(-c2cccc(C)n2)c1-c1cc2cnccc2s1 [US9090625, 4]"
